Experimental data from patent publication US9403997B2, “Non-VOC neutralizing agents for coatings” (Hercules Incorporated, priority 2012, dated 2016).

How the values were obtained:
[1] = Neutralizing agents tested in paint: viscosity, pH, gloss and yellowing compared to AMP-95 (Table 3); parameters: KU (eq) / ICI (eq): unit not given here; details: for pH (eq): pH of paint; for ICI (eq) / KU (eq): paint viscosity, 23PVC 50-VOC Vinyl Acrylic Semi-Gloss White, HASE thickener
Description: The neutralizing agents shown in Table 2 were further tested in a paint formulation 23[…] Vinyl Acrylic Semi-Gloss White, using a HASE thickener. Gloss measurements, as well as yellowing were compared to AMP-95.

[2] = Formulations of Table 2 tested in paint for gloss and yellowness (Table 4)
Procedure: The formulations shown in Table 2 were tested in 23PVC50-VOC vinyl acrylic (UCAR379G) white and tested for gloss and yellowness.

| pH (eq) [1] | ICI (eq) [1] | KU (eq) [1] | pH ([2]; pH of paint, 23PVC50-VOC vinyl acrylic (UCAR379G) white) | ICI (eq) ([2]; paint viscosity) | KU (eq) ([2]; paint viscosity) | Molecule |
| --- | --- | --- | --- | --- | --- | --- |
| 8.77 | 1.110 | 95.2 | 8.78 | 1.110 | 95.2 | CC(C)(N)CO [AMP-95, 2-amino-2-methyl-1-propanol, reference compound] |
| 9.7 | 1.023 | 94 |  |  |  | NCC(=O)O [Glycine (neutralized w/NaOH), Glycine] |
| 8.61 | 1.052 | 94.3 |  |  |  | C[C@H](N)C(=O)O [L-Alanine (neutralized w/NaOH), L-Alanine] |

| Molecule | pH (eq) [1] | ICI (eq) [1] | KU (eq) [1] | pH ([2]; pH of paint, 23PVC50-VOC vinyl acrylic (UCAR379G) white) | ICI (eq) ([2]; paint viscosity) | KU (eq) ([2]; paint viscosity) |
| --- | --- | --- | --- | --- | --- | --- |
| DL-Aspartic Acid Potassium Salt Hemihydrate | 8.54 | 1.046 | 90.8 |  |  |  |
